Tested on: gastric emptying in rats
Test: Gastric emptying in rats (phenol red gel gavage)
Type: in vivo, Male Harlan Sprague Dawley (HSD) rats
Procedure: This experiment followed a modification of the method of Scarpignato, et al., Arch.
Male Harlan Sprague Dawley (HSD) rats were used.
The determination of gastric emptying by the method described below was performed after a fast of −20 hours to ensure that the stomach contained no chyme that would interfere with spectrophotometric absorbance measurements.
Twenty minutes after gavage, rats were anesthetized using 5% halothane, the stomach exposed and clamped at the pyloric and lower esophageal sphincters using artery forceps, removed and opened into an alkaline solution which was made up to a fixed volume. Stomach content was derived from the intensity of the phenol red in the alkaline solution, measured by absorbance at a wavelength of 560 nm. In separate experiments on 7 rats, the stomach and small intestine were both excised and opened into an alkaline solution. […] To account for a maximal dye recovery of less than 100%, percent of stomach contents remaining after 20 min were expressed as a fraction of the gastric contents recovered from control rats sacrificed immediately after gavage in the same experiment. Percent gastric contents remaining=(absorbance at 20 min)/(absorbance at 0 mm)×100.
In baseline studies, with no drug treatment, gastric emptying over 20 min was determined.

exendin-4 acid: exendin agonist; synthesized according to standard peptide synthesis methods
EC50 (inhibition of gastric emptying) (conscious rats, gastric contents remaining 20 min after gavage, dose-response): 0.12 µg
Inhibition of gastric emptying (in words) (rats, FIG. 6 and Table II): potent inhibitors of gastric emptying

Reference: US7157555B1, “Exendin agonist compounds” (Amylin Pharmaceuticals, Inc., priority 1997, dated 2007)
